Experimental data published in patent US20210070748A1, “INHIBITORS OF BRUTONS TYROSINE KINASE” (Pharmacyclics LLC, priority 2015, published 2021).

How the values were obtained:
ITK = target: T1, ITK (Homo sapiens, UniProt Q08881); test: Inhibition of a panel of kinases, in vitro HotSpot kinase assay: ITK; assay type: biochemical; settings: D-compounds panel data; 1 μM ATP
T1 sequence (Q08881 1-620): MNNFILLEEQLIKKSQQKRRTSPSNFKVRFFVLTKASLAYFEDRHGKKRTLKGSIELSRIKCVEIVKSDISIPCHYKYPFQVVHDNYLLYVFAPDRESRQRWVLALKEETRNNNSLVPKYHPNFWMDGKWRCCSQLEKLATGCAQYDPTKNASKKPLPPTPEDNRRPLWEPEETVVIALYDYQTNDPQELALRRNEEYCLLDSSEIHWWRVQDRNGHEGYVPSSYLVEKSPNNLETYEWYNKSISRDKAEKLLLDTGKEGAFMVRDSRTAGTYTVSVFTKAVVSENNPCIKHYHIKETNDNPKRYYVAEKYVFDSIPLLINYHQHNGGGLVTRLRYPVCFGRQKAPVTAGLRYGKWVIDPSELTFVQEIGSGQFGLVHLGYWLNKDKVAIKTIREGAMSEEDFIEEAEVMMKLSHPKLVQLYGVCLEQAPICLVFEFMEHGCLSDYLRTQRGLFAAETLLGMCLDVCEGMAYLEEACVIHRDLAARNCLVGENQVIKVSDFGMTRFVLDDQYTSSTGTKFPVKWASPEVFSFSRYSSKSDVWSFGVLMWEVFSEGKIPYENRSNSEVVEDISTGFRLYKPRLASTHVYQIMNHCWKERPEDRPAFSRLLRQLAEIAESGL
Method: The degree of inhibition of a panel of kinases is determined using the in vitro HotSpot kinase assay (purified enzymes, ^33P-ATP, an appropriate substrate and 1 μM ATP).

JAK3 = target: T2, JAK3 (Homo sapiens, UniProt P52333); test: Inhibition of a panel of kinases, in vitro HotSpot kinase assay: JAK3; assay type: biochemical; settings: D-compounds panel data; 1 μM ATP; read-out: IC50 JAK3
T2 sequence (P52333 1-1124): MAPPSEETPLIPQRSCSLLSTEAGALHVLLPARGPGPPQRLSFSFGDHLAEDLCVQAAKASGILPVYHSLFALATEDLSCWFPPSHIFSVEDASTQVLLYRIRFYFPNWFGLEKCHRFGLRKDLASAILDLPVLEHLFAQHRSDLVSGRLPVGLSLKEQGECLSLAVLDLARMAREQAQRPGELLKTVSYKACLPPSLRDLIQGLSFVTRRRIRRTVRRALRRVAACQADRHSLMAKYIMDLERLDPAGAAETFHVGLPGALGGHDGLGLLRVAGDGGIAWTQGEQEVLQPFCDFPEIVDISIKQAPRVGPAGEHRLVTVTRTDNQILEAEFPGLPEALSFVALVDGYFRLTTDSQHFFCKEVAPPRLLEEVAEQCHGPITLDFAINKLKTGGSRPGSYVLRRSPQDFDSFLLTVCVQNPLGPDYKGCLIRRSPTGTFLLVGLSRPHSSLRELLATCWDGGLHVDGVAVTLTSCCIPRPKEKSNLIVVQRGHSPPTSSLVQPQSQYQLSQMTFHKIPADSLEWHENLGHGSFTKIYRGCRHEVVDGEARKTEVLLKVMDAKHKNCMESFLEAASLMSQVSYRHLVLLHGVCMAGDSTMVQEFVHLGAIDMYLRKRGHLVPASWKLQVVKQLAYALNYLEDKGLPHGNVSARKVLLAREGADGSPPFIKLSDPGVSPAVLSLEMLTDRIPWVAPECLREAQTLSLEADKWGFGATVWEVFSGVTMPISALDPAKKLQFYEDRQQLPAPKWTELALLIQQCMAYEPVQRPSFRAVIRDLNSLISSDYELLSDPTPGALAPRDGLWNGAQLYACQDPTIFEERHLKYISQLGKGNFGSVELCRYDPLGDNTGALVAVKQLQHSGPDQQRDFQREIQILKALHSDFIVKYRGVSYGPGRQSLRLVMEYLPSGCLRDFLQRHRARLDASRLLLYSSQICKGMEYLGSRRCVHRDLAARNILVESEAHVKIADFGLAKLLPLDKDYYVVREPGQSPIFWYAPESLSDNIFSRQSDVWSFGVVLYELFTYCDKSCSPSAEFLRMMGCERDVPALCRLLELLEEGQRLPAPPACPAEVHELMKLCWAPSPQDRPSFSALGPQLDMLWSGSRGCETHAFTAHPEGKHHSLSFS

Compound | IC50 (ITK) [nM] | IC50 (JAK3) [nM]
CN(C)C(=O)N[C@@H]1CCCN(c2cnc(C(N)=O)c(Nc3ccc(C4(C)CCN(C5CCCC5)CC4)cc3)n2)[C@H]1CO [Example D-60, 3-{[4-(1-cyclopentyl-4-methylpiperidin-4-yl)phenyl]amino}-5-[(2R,3R)-3-[(dimethylcarbamoyl)amino]-2-(hydroxymethyl)piperidin-1-yl]pyrazine-2-carboxamide] | 100 to 1000 | 1000 to 10000
CN(C)C(=O)N[C@H]1CCCN(c2cnc(C(N)=O)c(Nc3ccc(C4(C)CCN(C5CCCC5)CC4)cc3)n2)[C@@H]1CO [Example D-61, 3-{[4-(1-cyclopentyl-4-methylpiperidin-4-yl)phenyl]amino}-5-[(2S,3S)-3-[(dimethylcarbamoyl)amino]-2-(hydroxymethyl)piperidin-1-yl]pyrazine-2-carboxamide] | 1000 to 10000 | > 10000
C[C@@H]1[C@H](NC(=O)c2ccc(C3CC3)cc2F)CCCN1c1cnc(C(N)=O)c(Nc2nc3c(s2)CN(C)CC3)n1 [Example D-62, 5-[(2R,3R)-3-(4-cyclopropyl-2-fluorobenzamido)-2-methylpiperidin-1-yl]-3-({5-methyl-4H,5H,6H,7H-[1,3]thiazolo[5,4-c]pyridin-2-yl}amino)pyrazine-2-carboxamide] | > 10000 | > 10000
Cc1csc(Nc2nc(N3CCC[C@@H](NC(=O)c4ccc(C5CC5)cc4F)[C@H]3C)cnc2C(N)=O)n1 [Example D-63, 5-[(2R,3R)-3-(4-cyclopropyl-2-fluorobenzamido)-2-methylpiperidin-1-yl]-3-[(4-methyl-1,3-thiazol-2-yl)amino]pyrazine-2-carboxamide] | > 10000 | > 10000
C[C@@H]1[C@H](NC(=O)c2ccc(C3CC3)cc2F)CCCN1c1cnc(C(N)=O)c(Nc2ccc(C3(C)CCN(C4CCCC4)CC3)cc2)n1 [Example D-66, 3-{[4-(1-cyclopentyl-4-methylpiperidin-4-yl)phenyl]amino}-5-[(2R,3R)-3-(4-cyclopropyl-2-fluorobenzamido)-2-methylpiperidin-1-yl]pyrazine-2-carboxamide] | 10 to 100 | 100 to 1000
Cc1cc(Nc2nc(N3CCC[C@@H](NC(=O)N(C)C)[C@H]3CO)cnc2C(N)=O)sn1 [Example D-67, 5-[(2S,3R)-3-[(dimethylcarbamoyl)amino]-2-(hydroxymethyl)piperidin-1-yl]-3-[(3-methyl-1,2-thiazol-5-yl)amino]pyrazine-2-carboxamide] | 1000 to 10000 | 1000 to 10000
Cc1cc(Nc2nc(N3CCC[C@H](NC(=O)N(C)C)[C@@H]3CO)cnc2C(N)=O)sn1 [Example D-68, 5-[(2R,3S)-3-[(dimethylcarbamoyl)amino]-2-(hydroxymethyl)piperidin-1-yl]-3-[(3-methyl-1,2-thiazol-5-yl)amino]pyrazine-2-carboxamide] | > 10000 | 1000 to 10000
CN1CCN(C(=O)c2ccc(Nc3nc(N[C@H]4CC[C@H](NC(=O)N(C)C)CC4)cnc3C(N)=O)cc2)CC1 [Example D-69, 3-{[4-(4-methylpiperazine-1-carbonyl)phenyl]amino}-5-{[(1 r,4r)-4-[(dimethylcarbamoyl)amino]cyclohexyl]amino}pyrazine-2-carboxamide] | 1000 to 10000 | 100 to 1000
CN1CCN(C(=O)c2ccc(Nc3nc(N[C@H]4CC[C@H](NC(=O)c5ccc(C6CC6)cc5F)CC4)cnc3C(N)=O)cc2)CC1 [Example D-70, 3-{[4-(4-methylpiperazine-1-carbonyl)phenyl]amino}-5-{[(1 r,4r)-4-(4-cyclopropyl-2-fluorobenzamido)cyclohexyl]amino}pyrazine-2-carboxamide] | 100 to 1000 | 100 to 1000
CN1CCN(C(=O)c2ccc(Nc3nc(N[C@H]4CC[C@@H](NC(=O)c5ccc(C6CC6)cc5F)CC4)cnc3C(N)=O)cc2)CC1 [Example D-71, 3-{[4-(4-methylpiperazine-1-carbonyl)phenyl]amino}-5-{[(1 s,4s)-4-(4-cyclopropyl-2-fluorobenzamido)cyclohexyl]amino}pyrazine-2-carboxamide] | 1000 to 10000 | 10 to 100
CN1CCN(C(=O)c2ccc(Nc3nc(N[C@H]4CC[C@@H](NC(=O)N(C)C)CC4)cnc3C(N)=O)cc2)CC1 [Example D-72, 3-{[4-(4-methylpiperazine-1-carbonyl)phenyl]amino}-5-{[(1s,4s)-4-[(dimethylcarbamoyl)amino]cyclohexyl]amino}pyrazine-2-carboxamide] | 1000 to 10000 | 1000 to 10000
C[C@@H]1[C@H](NC(=O)c2ccc(C3CC3)cc2F)CCCN1c1cnc(C(N)=O)c(Nc2ccc(N3CCOCC3)cc2)n1 [Example D-73, 5-[(2R,3R)-3-(4-cyclopropyl-2-fluorobenzamido)-2-methylpiperidin-1-yl]-3-{[4-(morpholin-4-yl)phenyl]amino}pyrazine-2-carboxamide] | 100 to 1000 | > 10000
Cc1cc(Nc2nc(N3C[C@H](NC(=O)N(C)C)CC[C@@H]3C)cnc2C(N)=O)sn1 [Example D-74, 5-[(2S,5R)-5-[(dimethylcarbamoyl)amino]-2-methylpiperidin-1-yl]-3-[(3-methyl-1,2-thiazol-5-yl)amino]pyrazine-2-carboxamide] | > 10000 | 100 to 1000
Cc1cc(Nc2nc(N3C[C@@H](NC(=O)N(C)C)CC[C@H]3C)cnc2C(N)=O)sn1 [Example D-75, 5-[(2R,5S)-5-[(dimethylcarbamoyl)amino]-2-methylpiperidin-1-yl]-3-[(3-methyl-1,2-thiazol-5-yl)amino]pyrazine-2-carboxamide] | 1000 to 10000 | 100 to 1000
Cc1cc(Nc2nc(N3C[C@@H](NC(=O)N(C)C)CC[C@@H]3C)cnc2C(N)=O)sn1 [Example D-76, 5-[(2S,5S)-5-[(dimethylcarbamoyl)amino]-2-methylpiperidin-1-yl]-3-[(3-methyl-1,2-thiazol-5-yl)amino]pyrazine-2-carboxamide] | > 10000 | 1000 to 10000
Cc1cc(Nc2nc(N3C[C@H](NC(=O)N(C)C)CC[C@H]3C)cnc2C(N)=O)sn1 [Example D-77, 5-[(2R,5R)-5-[(dimethylcarbamoyl)amino]-2-methylpiperidin-1-yl]-3-[(3-methyl-1,2-thiazol-5-yl)amino]pyrazine-2-carboxamide] | > 10000 | 1000 to 10000
Cc1cc(Nc2nc(N3C[C@@H](NC(=O)c4ccc(C5CC5)cc4F)CC[C@@H]3C)cnc2C(N)=O)sn1 [Example D-78, 5-[(2S,5S)-5-(4-cyclopropyl-2-fluorobenzamido)-2-methylpiperidin-1-yl]-3-[(3-methyl-1,2-thiazol-5-yl)amino]pyrazine-2-carboxamide] | 1000 to 10000 | 1000 to 10000
Cc1cc(Nc2nc(N3C[C@H](NC(=O)c4ccc(C5CC5)cc4F)CC[C@H]3C)cnc2C(N)=O)sn1 [Example D-79, 5-[(2R,5R)-5-(4-cyclopropyl-2-fluorobenzamido)-2-methylpiperidin-1-yl]-3-[(3-methyl-1,2-thiazol-5-yl)amino]pyrazine-2-carboxamide] | > 10000 | 1000 to 10000
Cc1cc(Nc2nc(N3C[C@@H](NC(=O)c4ccc(C5CC5)cc4F)CC[C@H]3C)cnc2C(N)=O)sn1 [Example D-80, 5-[(2R,5S)-5-(4-cyclopropyl-2-fluorobenzamido)-2-methylpiperidin-1-yl]-3-[(3-methyl-1,2-thiazol-5-yl)amino]pyrazine-2-carboxamide] | > 10000 | 1000 to 10000
